{"source": "patent US20190105337A1", "about": "“METHODS OF TREATING BACTERIAL INFECTIONS” (priority 2015, published 2019)", "assay": "Example 6: plasma, epithelial lining fluid (ELF) and alveolar macrophage (AM) concentrations at bronchoscopy with BAL", "conditions": "8-hour sampling time", "experimental": "A total of twenty-five (n=25) male and female subjects who met the study entry criteria and completed all phases of the pharmacokinetic study were included in this pharmacokinetic analysis. […] Blood samples were collected to measure drug concentrations in plasma prior to (time 0), and at 1.5, 2.95, 3.083, 3.25, 3.5, 4, 6, and 8 hours after the start of a 3-hour intravenous infusion of the third combination dose.\nUrea has been commonly used as an endogenous marker to estimate the apparent volume of ELF. Blood samples to determine plasma urea concentrations were obtained just prior to scheduled bronchoscopy. Aliquots of BAL were obtained to determine urea concentrations in BAL and cell count with differential. The standardized bronchoscopy with BAL procedure for the collection of intrapulmonary samples has been previously described in the references listed below.\n(Reports MC14B-0013, MC14B-0015, MC14I-011, and MC14I-0012). The urea concentrations in plasma and BAL were performed with a microplate-based method with an 0-phthalaldehyde chromogenic solution at MicroConstants, Inc., San Diego, Calif.\nThe calculations of ELF volume and drug concentrations in ELF and AM were performed with BAL supernatant and pulmonary (alveolar) cells (“cell pellet”) from aspirates recovered from the 2nd, 3rd, and 4th instillations (BAL2). The concentration of drug (ABXELF) in the epithelial lining fluid (ELF) was determined as follows:\n[…]\nVELF is derived from the following:\nwhere UreaBAL is the concentration of urea in BAL fluid and UreaP is the concentration of urea in plasma.\nThe concentration of drug (ABXAM) in the alveolar cells (AC) was determined as follows:\nDifferential cell count was performed to determine the number of macrophages present. A mean macrophage cell volume of 2.42 μl/106 cells was used in the calculations for volume of alveolar cells in the pellet suspension.\nThe concentration ratios of ELF and AM to the simultaneous plasma concentrations were calculated for each subject and summarized for each group at each sampling time. […] The 8-hour sampling time was also used as a value at time zero for determining the area term of plasma, ELF, and AM. The AUC0-8 for each matrix was determined with the linear trapezoidal method. The ratio of AUC0-8 of ELF to plasma and AM to plasma were calculated."}
{"smiles": "C[C@@H](O)[C@@H](C(=O)O)[C@@H]1NC(C(=O)O)=C(S[C@@H]2CN[C@H](C(=O)N(C)C)C2)[C@@H]1C", "note": "[meropenem open-lactam]", "values": [{"measurement": "ELF concentrations", "result": "below the quantifiable limit"}]}
